Read-outs that look alike come from different tables or passages of the source.
Experiments:
[1] = cited from earlier work
[2] = NP TLC on non-impregnated control plates; type: physicochemical; conditions: for CNP (Rf value from the non-impregnated NP plate, control): Table S8, external group; for CNP (Rf, control NP plate): Table S3, non-impregnated NP plate, acetonitrile/acetate buffer pH 7.4/methanol 60:20:20
[3] = HPLC on immobilized artificial membrane column (HPLCIAM); type: physicochemical; conditions: for kIAM / log kIAM: Table S9, external group; for log k IAM: Table S5, IAM column, pH 7.4; for k IAM: Table S5, retention factor, IAM column, phosphate buffer pH 7.4/acetonitrile 80:20
[4] = RP TLC on non-impregnated control plates; type: physicochemical; conditions: for CRP (Rf value from the non-impregnated RP plate, control): Table S8, external group; for CRP (Rf, control RP plate): Table S4, non-impregnated RP plate, acetonitrile/acetate buffer pH 7.4/methanol 60:20:20
[5] = target: T1, human serum albumin (HSA) (Homo sapiens, UniProt P02768); conditions: for k HSA: Table S5, retention factor, HSA column, pH 7.4, 25 degrees Celsius
[6] = target: T2, bovine serum albumin (BSA) (Bos taurus, UniProt P02769); experiment: RP TLC on plates impregnated with bovine serum albumin; type: binding; conditions: for RP (Rf value from the RP plate impregnated with 2 mg/mL BSA solution): Table S8, external group; for RP (Rf, BSA-impregnated RP plate): Table S4, RP plate impregnated with 2 mg/mL BSA, pH 7.4 mobile phase
T2 construct: purchased Sigma Aldrich

[7] = target: T2, bovine serum albumin (BSA); experiment: NP TLC on plates impregnated with bovine serum albumin; type: binding; conditions: for NP (Rf value from the NP plate impregnated with 2 mg/mL BSA solution): Table S8, external group; for NP (Rf, BSA-impregnated NP plate): Table S3, NP plate impregnated with 2 mg/mL BSA, pH 7.4 mobile phase
[8] = ref DrugBank [7], cited from earlier work
plasma protein = conditions: ref DrugBank [7], cited from earlier work
[9] = Milk-to-plasma (M/P) drug concentration ratio obtained in vivo, from literature; parameters: species or system human; conditions: Table S1, scale of drug penetration into milk 1-4
[10] = target: T1, human serum albumin (HSA); experiment: in vitro; conditions: immobilized hsa column, pH 7.4
[11] = Table S6, external group (n = 38)
[12] = Table S6, external group, coded 1/0
[13] = Table S1, milk/plasma drug concentration ratio, in vivo
[14] = Table S1, plasma protein binding given as fraction
[15] = Table S6, external group (n = 38), given as fraction
[16] = human, immobilized hsa column, pH 7.4

T1 sequence (P02768 25-609): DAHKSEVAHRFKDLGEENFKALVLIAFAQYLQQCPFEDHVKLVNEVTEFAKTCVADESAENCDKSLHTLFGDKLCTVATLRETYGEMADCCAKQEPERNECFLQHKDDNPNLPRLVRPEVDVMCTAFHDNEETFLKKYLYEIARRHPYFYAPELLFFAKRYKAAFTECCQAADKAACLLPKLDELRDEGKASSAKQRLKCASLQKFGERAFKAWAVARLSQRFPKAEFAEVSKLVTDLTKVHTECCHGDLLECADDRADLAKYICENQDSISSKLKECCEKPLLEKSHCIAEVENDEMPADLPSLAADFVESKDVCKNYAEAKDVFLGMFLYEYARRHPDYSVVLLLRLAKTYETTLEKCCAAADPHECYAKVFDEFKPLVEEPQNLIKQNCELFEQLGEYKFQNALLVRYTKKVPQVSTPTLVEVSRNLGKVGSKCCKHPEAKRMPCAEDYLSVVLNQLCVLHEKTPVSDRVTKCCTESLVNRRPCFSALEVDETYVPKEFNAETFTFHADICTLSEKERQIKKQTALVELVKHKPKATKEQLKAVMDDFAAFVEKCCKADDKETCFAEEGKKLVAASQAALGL
T2 sequence (P02769 25-607): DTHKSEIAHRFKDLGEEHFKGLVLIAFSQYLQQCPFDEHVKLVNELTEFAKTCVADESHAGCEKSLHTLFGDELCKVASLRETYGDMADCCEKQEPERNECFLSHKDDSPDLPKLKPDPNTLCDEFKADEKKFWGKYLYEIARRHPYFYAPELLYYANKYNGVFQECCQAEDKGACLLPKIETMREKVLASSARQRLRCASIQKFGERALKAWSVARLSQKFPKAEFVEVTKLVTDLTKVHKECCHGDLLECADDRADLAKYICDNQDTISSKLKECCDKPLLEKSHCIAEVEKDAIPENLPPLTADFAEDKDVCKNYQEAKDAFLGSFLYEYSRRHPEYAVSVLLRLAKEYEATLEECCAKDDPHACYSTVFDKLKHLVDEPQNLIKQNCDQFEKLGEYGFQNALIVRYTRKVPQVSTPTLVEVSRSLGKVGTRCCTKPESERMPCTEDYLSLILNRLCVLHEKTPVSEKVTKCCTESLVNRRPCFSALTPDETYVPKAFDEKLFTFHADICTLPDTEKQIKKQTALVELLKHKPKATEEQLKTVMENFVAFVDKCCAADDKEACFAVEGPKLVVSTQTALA

| SMILES | M/P [1, 11] | CNP (Rf value from the non-impregnated NP plate, control) [2] | kIAM [3] | log kIAM [3] | CRP (Rf value from the non-impregnated RP plate, control) [4] | kHSA ([5]; Table S9, external group) | RP (Rf value from the RP plate impregnated with 2 mg/mL BSA solution) [6] | NP (Rf value from the NP plate impregnated with 2 mg/mL BSA solution) [7] | CNS+/- [8, 12] | PB (plasma protein; [14]) | CNP (Rf, control NP plate) [2] | log k IAM [3] | k IAM [3] | CRP (Rf, control RP plate) [4] | k HSA [5] | RP (Rf, BSA-impregnated RP plate) [6] | NP (Rf, BSA-impregnated NP plate) [7] | PB (plasma protein; [15]) | chromatographic logD [10] | further results |
| --- | --- | --- | --- | --- | --- | --- | --- | --- | --- | --- | --- | --- | --- | --- | --- | --- | --- | --- | --- | --- |
| CC(N)C12CC3CC(CC(C3)C1)C2 (stereo not shown) [rimantadine] | 2.00 | 0.92 | 1.91 | 0.28 | 0.95 | 0.16 | 0.95 | 0.92 | 1 | – | – | – | – | – | – | – | – | – | – | – |
| Fc1ccc([C@@H]2CCNC[C@H]2COc2ccc3c(c2)OCO3)cc1 [paroxetine] | – | – | – | – | – | – | – | – | – | 0.94 | 0.55 | 2.06 | 115.77 | 0.60 | 5.96 | 0.67 | 0.56 | – | – | M/P [1, 13]: 0.675; M/P code [9]: 2 (2 corresponds to the range of 0.40–0.80—at the safety limit); log k HSA ([5]; Table S5, HSA, pH 7.4): 0.78; CNS+/- ([8]; Table S1, coded 1/0): 1 |
| CCC[C@@H]1C[C@@H](C(=O)N[C@@H]([C@H]2O[C@H](SC)[C@H](O)[C@@H](O)[C@H]2O)[C@@H](C)O)N(C)C1 [lincomycin] | 0.15 | 0.91 | 3.89 | 0.59 | – | 0.82 | – | 0.91 | 0 | – | – | – | – | – | – | – | – | 0.70 | -0.08 | – |
| C[C@]12C=CC(=O)C=C1CC[C@@H]1[C@@H]2[C@@H](O)C[C@@]2(C)[C@H]1CC[C@]2(O)C(=O)CO [prednizolone] | – | – | – | – | – | – | – | – | – | 0.9 | 0.94 | 0.45 | 2.84 | 0.87 | 0.52 | 0.88 | 0.94 | – | – | M/P [1, 13]: 0.13; M/P code [9]: 1 (Code 1 corresponds to drugs with an M/P value <0.40—completely safe); log k HSA ([5]; Table S5, HSA, pH 7.4): -0.28 |
| Nc1ccc(O)c(C(=O)O)c1 [mesalazine] | 2.69 | – | 1.28 | 0.11 | 0.99 | 0.18 | 0.97 | – | 0 | – | – | – | – | – | – | – | – | 0.43 | -0.73 | – |
| CCC(C)n1ncn(-c2ccc(N3CCN(c4ccc(OCC5COC(Cn6cncn6)(c6ccc(Cl)cc6Cl)O5)cc4)CC3)cc2)c1=O (stereo not shown) [itraconazole] | 1.14 | 0.96 | 6.15 | 0.79 | 0.86 | 9.65 | 0.84 | 0.97 | 0 | – | – | – | – | – | – | – | – | 1.00 | 0.98 | – |
| CN(C)CCC=C1c2ccccc2COc2ccccc21 [doxepin] | 1.37 | 0.30 | 2.81 | 0.45 | – | 4.25 | 0.54 | 0.31 | 1 | – | – | – | – | – | – | – | – | 0.76 | – | log kHSA [5, 16]: 0.63 |
| NC(=O)N1c2ccccc2CC(=O)c2ccccc21 [oxcarbamazepine] | 0.50 | 0.91 | 2.26 | 0.35 | 0.91 | 0.40 | 0.91 | 0.90 | 1 | – | – | – | – | – | – | – | – | 0.40 | – | log kHSA ([5]; Table S9, external group): -0.40 |
| CC[C@@H](CO)NCCN[C@@H](CC)CO [ethambutol] | 1.00 | 0.19 | 2.18 | 0.34 | 0.97 | 1.73 | 0.95 | 0.21 | 0 | – | – | – | – | – | – | – | – | – | – | log kHSA [5, 16]: 0.24 |
| CCCCN1CCCCC1C(=O)Nc1c(C)cccc1C (stereo not shown) [bupivacaine] | 0.37 | 0.67 | – | 0.48 | 0.74 | 1.18 | 0.75 | 0.67 | 1 | – | – | – | – | – | – | – | – | 0.95 | – | log kHSA ([5]; Table S9, external group): 0.07 |
| CO/N=C(\C(=O)N[C@@H]1C(=O)N2C(C(=O)O)=C(COC(N)=O)CS[C@H]12)c1ccco1 [cefuroxime] | – | – | – | – | – | – | – | – | – | 0.5 | 0.97 | 0.23 | 1.69 | 0.88 | 0.23 | 0.87 | 0.98 | – | -0.64 | CNS+/- ([8]; Table S1, coded 1/0): 0 |
| CN1CCC(=C2c3ccccc3C=Cc3ccccc32)CC1 [cyproheptadine] | – | – | – | – | – | – | – | – | – | 0.975 | 0.45 | 1.38 | 23.79 | 0.45 | 9.7 | 0.47 | 0.43 | – | 0.99 | CNS+/- ([8]; Table S1, coded 1/0): 1 |
| CN1CCC[C@@H]1Cc1c[nH]c2ccc(CCS(=O)(=O)c3ccccc3)cc12 [eletriptan] | 0.25 | – | 3.57 | 0.55 | – | 3.78 | – | – | 1 | – | – | – | – | – | – | – | – | – | – | log kHSA [5, 16]: 0.58 |
| CC[C@H]1OC(=O)[C@H](C)[C@@H](O[C@H]2C[C@@](C)(OC)[C@@H](O)[C@H](C)O2)[C@H](C)[C@@H](O[C@@H]2O[C@H](C)C[C@H](N(C)C)[C@H]2O)[C@](C)(OC)C[C@@H](C)C(=O)[C@H](C)[C@@H](O)[C@]1(C)O [clarithromycin] | – | – | – | – | – | – | – | – | – | – | 0.99 | -1.02 | 0.10 | 0.83 | 0.82 | 0.78 | 0.99 | – | – | M/P [1, 13]: 0.25; M/P code [9]: 1 (Code 1 corresponds to drugs with an M/P value <0.40—completely safe); log k HSA ([5]; Table S5, HSA, pH 7.4): -0.09; CNS+/- ([8]; Table S1, coded 1/0): 0 |
| CN[C@H]1CC[C@@H](c2ccc(Cl)c(Cl)c2)c2ccccc21 [sertraline] | – | – | – | – | – | – | – | – | – | 0.98 | 0.53 | 1.63 | 42.89 | 0.49 | 13.19 | 0.48 | 0.53 | – | – | M/P [1, 13]: 1.85; M/P code [9]: 4 (4 is M/P >1.20—dangerous); log k HSA [5, 16]: 1.12 |
| CC[C@@H](C(N)=O)N1CCCC1=O [levetiracetam] | 1.00 | 0.92 | 1.62 | 0.21 | 0.92 | 0.07 | 0.92 | 0.92 | 1 | – | – | – | – | – | – | – | – | 0.10 | – | log kHSA ([5]; Table S9, external group): -1.16 |
| O=C(c1ccccc1)c1ccc2n1CCC2C(=O)O (stereo not shown) [ketorolac] | 0.03 | 0.92 | 2.39 | 0.38 | 0.96 | 9.65 | 0.96 | 0.91 | 1 | – | – | – | – | – | – | – | – | 0.99 | 0.98 | – |
| CC(C)NCC(O)COc1ccc(CCOCC2CC2)cc1 (stereo not shown) [betaxolol] | – | – | – | – | – | – | – | – | – | 0.5 | 0.66 | – | – | 0.27 | 1.59 | 0.25 | 0.65 | – | – | M/P [1, 13]: 2.75; M/P code [9]: 4 (4 is M/P >1.20—dangerous); log k HSA [5, 16]: 0.20; CNS+/- ([8]; Table S1, coded 1/0): 0 |
| CCOC(=O)C1=C(C)NC(C)=C(C(=O)OC)C1c1cccc([N+](=O)[O-])c1 (stereo not shown) [nitrendipine] | 0.30 | 0.97 | 2.98 | 0.47 | 0.86 | 3.55 | 0.86 | 0.97 | 0 | – | – | – | – | – | – | – | – | 0.99 | – | log kHSA ([5]; Table S9, external group): 0.55 |
